# From publication PMC4229301, “A Polymeric Prodrug of 5-Fluorouracil-1-Acetic Acid Using a Multi-Hydroxyl Polyethylene Glycol Derivative as the Drug Carrier” (PLoS ONE, 2014)
# Legend:
# [1] = system: Kunming mice; assay: Safety evaluation: myelosuppression (white blood cell and blood platelet counts) after intravenous administration; conditions: i.v., same doses, n=12
# [2] = Pharmacokinetics study after i.v. injection in rats; assay type: in vivo, Wistar rats
# Protocol: Male Wistar rats were purchased from The laboratory Animal Center of Sichuan University. 12 Wistar rats (body weight: 200 g±20 g) were divided into two groups randomly (n = 6). […] The blood samples were collected into heparinized centrifuge tubes at predetermined intervals (see Table S2 in file SI) by retro-orbital puncture, and the plasma was separated by centrifugation. Each plasma sample of the test groups was divided into two portions. They were treated as hydrolyzed and unhydrolyzed as described in the “In vitro drug release” section. The two portions of the samples were analyzed by HPLC to determine the plasma concentrations of released 5-FA and total 5-FA of the conjugate whereas the plasma samples of the control group were treated as unhydrolyzed samples.
# (§1) The data of pharmacokinetics and in vivo distribution study were processed using the Drug and Statistics Software 2.0 (DAS 2.0, Shanghai, China). The statistical analysis of the samples was performed by using one-way ANOVA and Student's t-test. p-values <0.05 were considered as statistically different.
# [3] = In vivo distribution in H22 tumor-bearing mice; set-up: species or system Kunming mice
# Protocol: The tumor-bearing animal model was established by subcutaneous injection of H22 cells (1×10^7 cells/ml, in 0.2 ml saline) into the right axillary region of Kunming mice. The sizes of tumors were monitored 7 days after inoculation and the tumor volumes were calculated as described in the “Antitumor activity in tumor-bearing mice” section. The mice with tumor volumes between 0.35 cm^3 and 0.65 cm^3 were randomized into two groups (n = 30). […] The mice were exsanguinated and sacrificed by neck dislocation at predetermined time points. Tissues including heart, liver, spleen, lung, kidney, brain and tumor were collected, washed with physiological saline, weighed and homogenized with two fold concentrated physiological saline. The samples of the test group were treated as hydrolyzed samples as described in the section “In vitro drug release”, whereas those of the control group were treated as unhydrolyzed samples. All data are presented as the concentration of 5-FA.
# as §1
# [4] = male, Wistar, rat, plasma, iv, 20 mg/kg
# [5] = rats, i.v., 20 mg/kg 5-FA or 189 mg/kg 5-FA-PAE
compound,measurement,setting,value
"O=c1[nH]cc(F)c(=O)[nH]1 [5-Fu, 5-fluorouracil]",number of blood platelets,[1]; 1 day after injection,792 ± 122 ×10^9/L
same,number of blood platelets,[1]; 4 days after injection,819 ± 211 ×10^9/L
same,number of white blood cells,[1]; 4 days after injection,6.84±5.76 ×10^9/L
same,number of blood platelets,[1]; 7 days after injection,858 ± 254 ×10^9/L
same,number of white blood cells,[1]; 7 days after injection,7.34±2.82 ×10^9/L
same,number of blood platelets,[1]; 10 days after injection,863 ± 382 ×10^9/L
same,number of white blood cells,[1]; 10 days after injection,8.59±2.39 ×10^9/L
"O=C(O)Cn1cc(F)c(=O)[nH]c1=O [5-FA, 5-fluorouracil-1-acetic acid]",AUC(0-inf),[2]; [4],21600 ± 4470 ng·h/mL
same,AUC(0-t),[2]; [4],21400 ± 4360 ng·h/mL
same,Cmax,[2]; [4],74.9 ± 10.2 µg/mL
same,Tmax,[2]; [4],1 min
same,MRT last,"[2]; male, Wistar, rat, plasma, iv, 20 mg/kg, read-out: MRT 0-t",40.7 ± 8.52 min
same,MRT inf,"[2]; male, Wistar, rat, plasma, iv, 20 mg/kg, read-out: MRT 0-∞",47.7 ± 14.4 min
same,Vd,"[2]; male, Wistar, rat, plasma, iv, 20 mg/kg, read-out: V (apparent volume of distribution)",2.11 ± 0.62 L/kg
same,half-life,"[2]; male, Wistar, rat, plasma, iv, 20 mg/kg, read-out: t1/2 (elimination half life) (converted)",92.3 ± 25.1 min
same,concentration at 1 min,"[2]; male, Wistar, rat, plasma, iv, rats, i.v. 20 mg/kg 5-FA, 1 min",79.9 ± 10.2 µg/mL
same,concentration at 5 min,"[2]; male, Wistar, rat, plasma, iv, rats, i.v. 20 mg/kg 5-FA, 5 min",79.9 ± 2.86 µg/mL
same,concentration at 10 min,"[2]; male, Wistar, rat, plasma, iv, rats, i.v. 20 mg/kg 5-FA, 10 min",79.9 ± 3.52 µg/mL
same,concentration at 15 min,"[2]; male, Wistar, rat, plasma, iv, rats, i.v. 20 mg/kg 5-FA, 15 min",79.9 ± 5.07 µg/mL
same,concentration at 30 min,"[2]; male, Wistar, rat, plasma, iv, rats, i.v. 20 mg/kg 5-FA, 30 min",79.9 ± 2.8 µg/mL
same,concentration at 1 h,"[2]; male, Wistar, rat, plasma, iv, rats, i.v. 20 mg/kg 5-FA, 1 h",79.9 ± 0.986 µg/mL
same,concentration at 2 h,"[2]; male, Wistar, rat, plasma, iv, rats, i.v. 20 mg/kg 5-FA, 2 h",79.9 ± 0.814 µg/mL
same,time of complete removal from the blood circulation after administration,"[2]; rats, i.v.",6∼8 h
same,"Plasma concentration, 5-FA","[2]; rats, i.v. 20 mg/kg 5-FA, 10 h",-
same,"Plasma concentration, 5-FA","[2]; rats, i.v. 20 mg/kg 5-FA, 24 h",-
same,Cl (clearance),[2]; [5],0.967 ± 0.259 mL/g/h
same,VRT 0-t,[2]; [5],1.519±0.326 h^2
same,VRT 0-∞,[2]; [5],2.703±1.558 h^2
same,number of blood platelets,[1]; 1 day after injection,945 ± 139 ×10^9/L
same,number of blood platelets,[1]; 4 days after injection,781 ± 250 ×10^9/L
same,number of white blood cells,[1]; 4 days after injection,10.32±5.71 ×10^9/L
same,number of blood platelets,[1]; 7 days after injection,822 ± 198 ×10^9/L
same,number of white blood cells,[1]; 7 days after injection,10.24±4.50 ×10^9/L
same,number of blood platelets,[1]; 10 days after injection,860 ± 188 ×10^9/L
same,number of white blood cells,[1]; 10 days after injection,11.55±3.62 ×10^9/L
same,concentration in tumor over time,"[3]; H22 tumor-bearing mice, i.v. 20 mg/kg 5-FA",undetectable after 6 h
same,concentration at 15 min,"[3]; Kunming, mouse, tumor, iv, 20 mg/kg",4860 ± 1620 ng/g
same,Kp at 4 h,"[3]; Kunming, mouse, tumor/plasma, iv, 20 mg/kg, H22 tumor-bearing mice, i.v., 4 h after injection, read-out: ratio of tumor/plasma concentration",1.99
